Experimental data reported in the NIST ThermoML archive (doi:10.1021/je5010214).

Settings: Liquid, Vibrating tube method

CCCCCCC [heptane]
Settings	mass density [kg/m3]
283.15 K, 101 kPa	692.398
283.15 K, 267.6 kPa	692.646
283.15 K, 550.8 kPa	692.799
283.15 K, 878.6 kPa	693.177
283.15 K, 991.3 kPa	693.192
283.15 K, 2020.2 kPa	694.161
283.15 K, 2914.8 kPa	694.997
283.15 K, 4946.5 kPa	696.597
283.15 K, 7034.8 kPa	698.638
283.15 K, 9021.6 kPa	700.052
283.15 K, 9991.9 kPa	700.869
283.15 K, 11959 kPa	702.48
283.15 K, 15011 kPa	704.783
283.15 K, 18047 kPa	706.965
283.15 K, 20045 kPa	708.637
283.15 K, 22056 kPa	709.841
283.15 K, 25044 kPa	712
283.15 K, 28046 kPa	714.05
283.15 K, 30052 kPa	715.435
283.15 K, 32055 kPa	716.688
283.15 K, 32971 kPa	717.342
283.15 K, 33000 kPa	717.432
283.15 K, 34016 kPa	718.012
283.15 K, 34960 kPa	718.734
283.15 K, 37943 kPa	720.455
283.15 K, 40004 kPa	721.755
283.15 K, 42058 kPa	723.102
283.15 K, 44940 kPa	724.839
283.15 K, 48022 kPa	726.526
283.15 K, 49996 kPa	727.851
283.15 K, 51982 kPa	728.904
283.15 K, 54965 kPa	730.736
283.15 K, 57949 kPa	732.407
283.15 K, 59996 kPa	733.467
283.15 K, 62025 kPa	734.345
283.15 K, 64998 kPa	735.98
283.16 K, 65971 kPa	736.499
288.15 K, 102 kPa	688.224
288.15 K, 391.3 kPa	688.682
288.15 K, 554.4 kPa	688.232
288.15 K, 882.7 kPa	689.214
288.15 K, 989.1 kPa	688.618
288.15 K, 2057.5 kPa	689.559
288.15 K, 2917.8 kPa	690.931
288.15 K, 5041.4 kPa	692.738
288.15 K, 7088.8 kPa	693.96
288.15 K, 9018.6 kPa	695.614
288.15 K, 10040 kPa	696.278
288.15 K, 12072 kPa	698.584
288.15 K, 15001 kPa	700.836
288.15 K, 17968 kPa	703.23
288.15 K, 20068 kPa	704.758
288.15 K, 22020 kPa	705.649
288.15 K, 25002 kPa	707.645
288.15 K, 28026 kPa	709.735
288.15 K, 30035 kPa	711.006
288.15 K, 32084 kPa	712.959
288.15 K, 33050 kPa	713.818
288.15 K, 33096 kPa	713.93
288.15 K, 34036 kPa	714.067
288.15 K, 35077 kPa	714.575
288.15 K, 37993 kPa	716.378
288.15 K, 40041 kPa	717.608
288.15 K, 42023 kPa	718.735
288.15 K, 44979 kPa	720.398
288.15 K, 48045 kPa	723.18
288.15 K, 50068 kPa	724.245
288.15 K, 52032 kPa	724.841
288.15 K, 55077 kPa	726.211
288.15 K, 58004 kPa	729.214
288.15 K, 59988 kPa	729.723
288.15 K, 61974 kPa	731.101
288.15 K, 64942 kPa	731.745
288.15 K, 66025 kPa	732.751
293.15 K, 100.5 kPa	683.714
293.15 K, 825.1 kPa	684.796
293.15 K, 1971.7 kPa	685.978
293.15 K, 3060.6 kPa	686.787
293.15 K, 5011 kPa	688.859
293.15 K, 9042.1 kPa	692.394
293.15 K, 10036 kPa	693.252
293.15 K, 11946 kPa	694.459
293.15 K, 14941 kPa	697.266
293.15 K, 21987 kPa	701.769
293.15 K, 27986 kPa	706.659
293.15 K, 33150 kPa	710.401
293.15 K, 33151 kPa	710.425
293.15 K, 34099 kPa	710.557
293.15 K, 35000 kPa	711.53
293.15 K, 40081 kPa	714.898
293.15 K, 42099 kPa	716.347
293.15 K, 45068 kPa	718.234
293.15 K, 54966 kPa	724.479
293.15 K, 58072 kPa	726.215
293.15 K, 66045 kPa	730.5
293.16 K, 305.2 kPa	684.504
293.16 K, 476.4 kPa	684.708
293.16 K, 1045.2 kPa	685.167
293.16 K, 7096.8 kPa	690.796
293.16 K, 17889 kPa	698.789
293.16 K, 19992 kPa	701.345
293.16 K, 24983 kPa	704.2
293.16 K, 29976 kPa	708.599
293.16 K, 32232 kPa	710.098
293.16 K, 38026 kPa	712.948
293.16 K, 48022 kPa	720.258
293.16 K, 50084 kPa	721.322
293.16 K, 52032 kPa	722.789
293.16 K, 60018 kPa	727.31
293.16 K, 61962 kPa	728.261
293.16 K, 64991 kPa	729.973
298.15 K, 102.3 kPa	679.807
298.15 K, 305.4 kPa	680.336
298.15 K, 854.5 kPa	680.896
298.15 K, 1980.9 kPa	681.933
298.15 K, 3167.8 kPa	682.97
298.15 K, 5067.6 kPa	684.841
298.15 K, 7065.3 kPa	686.383
298.15 K, 10107 kPa	689.119
298.15 K, 20128 kPa	696.696
298.15 K, 22004 kPa	699.062
298.15 K, 25080 kPa	701.29
298.15 K, 33113 kPa	707.026
298.15 K, 33924 kPa	706.971
298.15 K, 38097 kPa	709.948
298.15 K, 40161 kPa	711.975
298.15 K, 42028 kPa	713.324
298.15 K, 45021 kPa	715.087
298.15 K, 48107 kPa	717.001
298.15 K, 50068 kPa	718.317
298.15 K, 55016 kPa	721.123
298.15 K, 57931 kPa	723.027
298.15 K, 59914 kPa	724.031
298.15 K, 62036 kPa	725.393
298.15 K, 65018 kPa	726.954
298.16 K, 493.7 kPa	680.581
298.16 K, 1012.6 kPa	680.891
298.16 K, 9120.9 kPa	688.48
298.16 K, 11970 kPa	689.977
298.16 K, 15220 kPa	693.294
298.16 K, 17984 kPa	694.869
298.16 K, 28040 kPa	703.578
298.16 K, 30089 kPa	704.725
298.16 K, 32034 kPa	706.093
298.16 K, 33093 kPa	706.936
298.16 K, 35217 kPa	707.884
298.16 K, 52020 kPa	719.461
298.16 K, 66118 kPa	727.501
303.15 K, 100.7 kPa	675.559
303.15 K, 304.1 kPa	675.598
303.15 K, 498.9 kPa	675.77
303.15 K, 900.6 kPa	675.904
303.15 K, 979.1 kPa	676.053
303.15 K, 1977.6 kPa	677.27
303.15 K, 4930.4 kPa	680.06
303.15 K, 11975 kPa	686.61
303.15 K, 15044 kPa	689.15
